From patent US20190269705A1, “METHODS AND MATERIALS FOR TREATING GRAFT VERSUS HOST DISEASE” (Regents of the University of Minnesota, priority 2017, published 2019)
“Also recorded” adds a separate entry of the source.

Experiments:
CD19+ B cells = test: In vivo CAR T cells treated ex vivo; parameters: species or system mouse; details: CAR-T cells treated with CB839 during in vitro transduction
Text: CAR T cells were produced as described elsewhere (see, e.g., Li et al., “Gammaretroviral Production and T Cell Transduction to Genetically Retarget Primary T Cells Against Cancer.” In: Lugli E, ed. T-Cell Differentiation: Methods and Protocols. New York, N.Y.: Springer New York; 2017:111-118). Briefly, spleen T cells were isolated from Thy1.1 B6 mice at day 0. Cells were then activated with mouse CD3/CD28 Dynabeads and 30 IU/ml recombinant human IL2. At day 1 and 2, cells were spin transduced twice with retrovirus carrying CARs. At day 3, cells were fed with fresh medium. At day 4, transduced T cells were harvested, beads removed, evaluated for viability, transduction efficiency, immune phenotype and ready for use. For CB839 treated CAR T cells, CB839 were added to the culture at day 1, 2 and 3 at 1 μM. For in vivo study, C57B6 mice (n=25) were i.p. injected with cyclophosphamide (CTX) at 300 mg/kg. Mice were i.v. injected with 3×10^5 CAR T cells one day after CTX injection. Peripheral blood (PB) samples were collected 1, 2, 4 and 6 weeks after CAR T injection, stained with B cell and T cell antibodies and subjected to flow cytometry. […]
CAR T cells were produced as previously described (Li et al., 2017). […] At day 4, transduced T cells were harvested, beads removed, evaluated for viability, transduction efficiency, immune phenotype and ready for use. […]

stimulated T cells = test: Oxygen Consumption Rate (Seahorse) of stimulated CD4 T cells; format: cell-based, mouse; details: CD4 cells stimulated on CD3/CD28; 1 μM CB839, 5 μM UK5099 injected separately or in combination
Description: (§1) Experiments were carried out on Agilent Seahorse XF96 bioanalyzer (Agilent). Briefly, wild type CD4+ cells were isolated as previous and activated for 3 days on CD3/CD28 as previously described, or skewed to Th1 and Th17 subsets as described above. T cells were spun onto XF96 Cell-Tak (BD Bioscience, Cat #: 354240) coated plates and rested in Seahorse XF RPMI 1640 media supplemented with glutamine, sodium pyruvate, and glucose. For immediate metabolic response, CB839 and UK5099 were injected separately or in combination, and OCR and ECAR measured.
(§2) Experiments were carried out on Agilent Seahorse XF96 bioanalyzer (Agilent). Briefly, wild type CD4+ cells were isolated as previous and activated for 3 days on αCD3/CD28 coated plates as previously described, or skewed to Th1 and Th17 subsets as described above. T cells were isolated and spun onto XF96 Cell-Tak (BD Bioscience, Cat #: 354240) coated plates and rested in Seahorse XF RPMI 1640 media supplemented with glutamine, sodium pyruvate, and glucose. For immediate metabolic response, 1 μM CB839 and 5 μM UK5099 (Cat #: PZ0160-5MG) were injected separately or in combination, and OCR and ECAR measured. For activation response, 1 uM CB839 was injected into IL-7 maintained naïve CD4+ T cells in seahorse medium and allowed to incubate for 20 minutes, followed by soluble αCD3/CD28 injection.

[1] = test system: CD4 T cells (Th0 conditions); test: CD4 T cells activated and cultured in IL2 (Th0 conditions), flow cytometry
naïve CD4+ T cells = test: Extracellular Acidification Rate on instantaneous T cell activation (Seahorse); format: cell-based, mouse; details: αCD3/CD28 injection in the presence of vehicle or CB839
Description: as §1, §2

[2] = test system: hgp100-expressing vaccinia virus; details: mouse, in vivo
[3] = mouse, in vivo
Th1 cells = test: Intracellular metabolites by mass spectrometry and pathway analysis, Th1; format: cell-based, mouse; details: for Hits: Th1 Pathway
Description: Differentiation: CD4 cells were isolated as previously described and differentiated in subset-specific medium (in triplicate) for 3 days, split at day 3 with new media and IL-2, then allowed to incubate a further 2 days. At day 5, wells were combined, cells washed lx in MACS buffer, re-isolated for CD4 via AutoMACS Pro automated magnetic separator (Miltenyi, Cat #: 130-092-545). Metabolites from Th1 and Th17 cells were extracted as described above.
Differentiation. CD4 cells were isolated as previously described and differentiated in subset-specific medium in the presence of vehicle or CB839 (in triplicate) for 3 days, split at day 3 with new media and IL-2, then allowed to incubate a further 2 days. At day 5, wells were combined, cells washed 1× in MACS buffer and re-isolated for CD4 via AutoMACS Pro automated magnetic separator (Miltenyi, Cat #: 130-092-545). Metabolites from Th1 and Th17 cells were extracted and analyzed by LC-HRMS using a Q-Exactive as described previously (Gerriets et al., 2015). Data were range scaled and analyzed using Metaboanalyst 3.5 (Xia and Wishart, 2002) to generate heat maps and for principle component analyses.

[4] = activated CD4 T cells, IL2, day 5

## O=C(Cc1cccc(OC(F)(F)F)c1)Nc1ccc(CCCCc2nnc(NC(=O)Cc3ccccn3)s2)nn1 [CB839]
CD19+ B cells
  CAR-T cell accumulation / persistence in vivo: accumulated in vivo to a greater extent; also recorded: enhances T cell persistence
  elimination of CD19+ targets in vivo: equivalently capable; also recorded: equally capable of eliminating CD19+ targets in vivo
Stimulated T cells
  oxygen consumption (T cell respiration): neither UK5099 nor CB839 were sufficient on their own to reduce T cell respiration; also recorded: neither UK5099 nor CB839 were sufficient to reduce T cell respiration alone
[1]; CD4+ T cells stimulated in the presence of IL-2 and CB839
  Foxp3 expression: unchanged
[1]; Th0 cells in the presence of IL2
  phospho-S6: enhanced phospho-S6
[1]; [4]
  IFNγ expression: greater expression of IFNγ
  Tbet expression: greater expression
naïve CD4+ T cells
  early events in T cell activation (ECAR): did not to be affected
[2]
  time increased cell numbers persisted: greater than 5 weeks
[3]
  accumulation / persistence of transferred CD8 T cells: accumulated to greater numbers in vivo by day 7; also recorded: enhances T cell persistence
Th1 cells; Th1, CB839-treated vs vehicle
  2-hydroxyglutarate (2-HG): increased in both Th1 and Th17
  intracellular α-KG: reduced
Th1 cells; Th1, differentiated with CB839, 5 days
  programs of intracellular metabolites: shifted
Th1 cells; Th1, over five days
  glutamate and aspartate levels: rapidly decreased
  steady state levels of glutamine: rapidly increased
Th1 cells; Alanine, aspartate and glutamate metabolism
  Hits: 8
Th1 cells; Arginine and proline metabolism
  Hits: 6
Th1 cells; Butanoate metabolism
  Hits: 3
Th1 cells; Citrate cycle (TCA cycle)
  Hits: 5
Th1 cells; Cysteine and methionine metabolism
  Hits: 3
Th1 cells; D-Glutamine and Dglutamate metabolism
  Hits: 3
Th1 cells; Histidine metabolism
  Hits: 3
Th1 cells; Nitrogen metabolism
  Hits: 2
Th1 cells; Pyrimidine metabolism
  Hits: 6
Th1 cells; Pyruvate metabolism
  Hits: 3
